In ChEMBL document CHEMBL1681651, “A broad spectrum anticancer nucleoside with selective toxicity against human colon cells in vitro” (2011):

Assays:
Type in all cases: functional
[1] = system: OVCAR-5; assay: Growth inhibition of human OVCAR5 cells assessed as cell growth at 0.1 uM after 48 hrs by SRB assay; conditions: OVCAR-5, 48 h, read-out: Activity
[2] = system: HCC 2998; assay: Growth inhibition of human HCC2998 cells after 48 hrs by […] growth inhibition assay; conditions: HCC 2998, 48 h
[3] = system: NCI-H226; assay: Growth inhibition of human NCI-H226 cells assessed as cell growth at 10 uM after 48 hrs by SRB assay; conditions: NCI-H226, 48 h, read-out: Activity
[4] = system: MCF7; assay: Growth inhibition of human MCF7 cells after 48 hrs by […] growth inhibition assay; conditions: MCF7, 48 h
[5] = system: HOP-92; assay: Growth inhibition of human HOP92 cells assessed as cell growth at 1 mM after 48 hrs by SRB assay; conditions: HOP-92, 48 h, read-out: Activity
[6] = system: LOX IMVI; assay: Growth inhibition of human LOXIMVI cells assessed as cell growth at 100 uM after 48 hrs by SRB assay; conditions: read-out: Activity
[7] = system: NCI-H226; assay: Growth inhibition of human NCI-H226 cells assessed as cell growth at 1 mM after 48 hrs by SRB assay; conditions: NCI-H226, 48 h, read-out: Activity
[8] = system: HT-29; assay: Growth inhibition of human HT-29 cells assessed as cell growth at 100 uM after 48 hrs by SRB assay; conditions: HT-29, 48 h, read-out: Activity
[9] = system: SR; assay: Growth inhibition of human SR cells assessed as cell growth at 10 uM after 48 hrs by SRB assay; conditions: read-out: Activity
[10] = system: SK-MEL-5; assay: Growth inhibition of human SK-MEL-5 cells assessed as cell growth at 1 mM after 48 hrs by SRB assay; conditions: SK-MEL-5, 48 h, read-out: Activity
[11] = system: LOX IMVI; assay: Growth inhibition of human LOXIMVI cells after 48 hrs by […] growth inhibition assay
[12] = system: OVCAR-8; assay: Growth inhibition of human OVCAR8 cells after 48 hrs by […] growth inhibition assay; conditions: OVCAR-8, 48 h
[13] = system: OVCAR-3; assay: Growth inhibition of human OVCAR3 cells assessed as cell growth at 1 mM after 48 hrs by SRB assay; conditions: OVCAR-3, 48 h, read-out: Activity
[14] = system: HCT-15; assay: Growth inhibition of human HCT15 cells assessed as cell growth at 1 mM after 48 hrs by SRB assay; conditions: HCT-15, 48 h, read-out: Activity
[15] = system: ACHN; assay: Growth inhibition of human ACHN cells after 48 hrs by […] growth inhibition assay
[16] = system: MDA-MB-435; assay: Growth inhibition of human MDA-MB-435 cells assessed as cell growth at 1 mM after 48 hrs by SRB assay; conditions: MDA-MB-435, 48 h, read-out: Activity
[17] = system: KM12; assay: Growth inhibition of human KM12 cells assessed as cell growth at 0.1 uM after 48 hrs by SRB assay; conditions: KM12, 48 h, read-out: Activity
[18] = system: SNB-19; assay: Growth inhibition of human SNB19 cells after 48 hrs by […] growth inhibition assay; conditions: SNB-19, 48 h
[19] = system: UO-31; assay: Growth inhibition of human UO31 cells assessed as cell growth at 1 uM after 48 hrs by SRB assay; conditions: UO-31, 48 h, read-out: Activity
[20] = system: SF-539; assay: Growth inhibition of human SF539 cells assessed as cell growth at 100 uM after 48 hrs by SRB assay; conditions: SF-539, 48 h, read-out: Activity
[21] = system: A498; assay: Growth inhibition of human A498 cells assessed as cell growth at 100 uM after 48 hrs by SRB assay; conditions: A498, 48 h, read-out: Activity
[22] = system: RXF 393; assay: Growth inhibition of human RXF393 cells assessed as cell growth at 100 uM after 48 hrs by SRB assay; conditions: RXF 393, 48 h, read-out: Activity
[23] = system: SK-OV-3; assay: Growth inhibition of human SKOV3 cells after 48 hrs by […] growth inhibition assay; conditions: SK-OV-3, 48 h
[24] = system: M14; assay: Growth inhibition of human M14 cells assessed as cell growth at 10 uM after 48 hrs by SRB assay; conditions: M14, 48 h, read-out: Activity
[25] = system: OVCAR-8; assay: Growth inhibition of human OVCAR8 cells assessed as cell growth at 100 uM after 48 hrs by SRB assay; conditions: OVCAR-8, 48 h, read-out: Activity
[26] = system: MDA-MB-231; assay: Growth inhibition of human MDA-MB-231 cells after 48 hrs by […] growth inhibition assay; conditions: MDA-MB-231, 48 h
[27] = system: SK-MEL-2; assay: Growth inhibition of human SK-MEL-2 cells assessed as cell growth at 1 uM after 48 hrs by SRB assay; conditions: SK-MEL-2, 48 h, read-out: Activity
[28] = system: A549; assay: Growth inhibition of human A549 cells after 48 hrs by […] growth inhibition assay; conditions: A549, 48 h
[29] = system: SK-MEL-5; assay: Growth inhibition of human SK-MEL-5 cells assessed as cell growth at 0.1 uM after 48 hrs by SRB assay; conditions: SK-MEL-5, 48 h, read-out: Activity
[30] = read-out: LC50 (the source's name)
[31] = read-out: pLC50 (the source's name) (converted)

CNC(=O)NC[C@H]1O[C@@H](n2cnc3c(NC(=O)Nc4ccccc4)ncnc32)[C@H](O[Si](C)(C)C(C)(C)C)[C@@H]1CC(=O)N(C)OC
growth at 0.1 µM [1]: 99%
GI50 ([2]; read-out: GI50): 30.6 µM
CC50 [2, 30]: > 100 µM
TGI ([2]; read-out: TGI): > 100 µM
GI50 ([2]; read-out: pGI50 (converted)): 30.9 µM
CC50 [2, 31]: > 100 µM
TGI ([2]; read-out: pTGI (converted)): > 100 µM
growth at 10 µM [3]: 99%
GI50 ([4]; read-out: GI50): 5.59 µM
CC50 [4, 30]: > 100 µM
TGI ([4]; read-out: TGI): > 100 µM
GI50 ([4]; read-out: pGI50 (converted)): 5.62 µM
CC50 [4, 31]: > 100 µM
TGI ([4]; read-out: pTGI (converted)): > 100 µM
growth at 1000 µM [5]: -43%
growth at 100 µM [6]: 43%
growth at 1000 µM [7]: 40%
growth at 100 µM [8]: 32%
growth at 10 µM [9]: 62%
growth at 1000 µM [10]: 11%
GI50 ([11]; read-out: GI50): 7.3 µM
CC50 [11, 30]: > 100 µM
TGI ([11]; read-out: TGI): > 100 µM
GI50 ([11]; read-out: pGI50 (converted)): 7.24 µM
CC50 [11, 31]: > 100 µM
TGI ([11]; read-out: pTGI (converted)): > 100 µM
GI50 ([12]; read-out: GI50): 9.02 µM
CC50 [12, 30]: > 100 µM
TGI ([12]; read-out: TGI): > 100 µM
GI50 ([12]; read-out: pGI50 (converted)): 9.12 µM
CC50 [12, 31]: > 100 µM
TGI ([12]; read-out: pTGI (converted)): > 100 µM
growth at 1000 µM [13]: 6%
growth at 1000 µM [14]: 37%
GI50 ([15]; read-out: GI50): 14.4 µM
CC50 [15, 30]: > 100 µM
TGI ([15]; read-out: TGI): > 100 µM
GI50 ([15]; read-out: pGI50 (converted)): 14.5 µM
CC50 [15, 31]: > 100 µM
TGI ([15]; read-out: pTGI): > 100 µM
growth at 1000 µM [16]: 36%
growth at 0.1 µM [17]: 101%
GI50 ([18]; read-out: GI50): > 100 µM
CC50 [18, 30]: > 100 µM
TGI ([18]; read-out: TGI): > 100 µM
GI50 ([18]; read-out: pGI50 (converted)): > 100 µM
CC50 [18, 31]: > 100 µM
TGI ([18]; read-out: pTGI): > 100 µM
growth at 1 µM [19]: 89%
growth at 100 µM [20]: 65%
growth at 100 µM [21]: 24%
growth at 100 µM [22]: 49%
GI50 ([23]; read-out: GI50): 52.7 µM
CC50 [23, 30]: > 100 µM
TGI ([23]; read-out: TGI): > 100 µM
GI50 ([23]; read-out: pGI50 (converted)): 52.5 µM
CC50 [23, 31]: > 100 µM
TGI ([23]; read-out: pTGI): > 100 µM
growth at 10 µM [24]: 91%
growth at 100 µM [25]: 48%
GI50 ([26]; read-out: GI50): 12.3 µM
CC50 [26, 30]: > 100 µM
TGI ([26]; read-out: TGI): > 100 µM
GI50 ([26]; read-out: pGI50 (converted)): 12.3 µM
CC50 [26, 31]: > 100 µM
TGI ([26]; read-out: pTGI (converted)): > 100 µM
growth at 1 µM [27]: 83%
GI50 ([28]; read-out: GI50): 9.35 µM
CC50 [28, 30]: > 100 µM
TGI ([28]; read-out: TGI): > 100 µM
GI50 ([28]; read-out: pGI50 (converted)): 9.33 µM
CC50 [28, 31]: > 100 µM
TGI ([28]; read-out: pTGI (converted)): > 100 µM
growth at 0.1 µM [29]: 104%
